Data as given in patent US7943575B2, “Sustained release drug formulations containing a carrier peptide” (Ipsen Pharma S.A.S., priority 2002, dated 2011).
Where two headings read alike, the source gives them in different places.

Assay: Pharmacokinetic profile of a SOMATULINE/DECAPEPTYL composition in beagle dogs (RIA of blood samples)
Assay type: in vivo
From the text: Once a particular peptide or peptide salt is found to gel in an in vitro assay, e.g., an assay as described above, an in vivo assay can be used to determine the suitability of that peptide salt for use as a sustained-release carrier peptide of a therapeutic agent or agents in animals or humans. A blood level release profile for the carrier peptide and/or the therapeutic agent or agents can be determined by injecting the composition into an animal, e.g., a Sprague Dawley rat, a dog, etc., and testing blood samples taken at specific time intervals, e.g., hourly intervals over 1 to 5 days, or 12 or 24 hour intervals over 5 to 45 days, for the concentration of the peptide and/or therapeutic agent or agents. The suitability of a particular peptide gel, or a peptide/carrier gel, for therapeutic delivery of the carrier peptide and/or therapeutic agent or agents can thus be determined.
Generally, in such an assay animals are anaesthetized with pentobarbital (60 mg/kg i.p. for rats), and a jugular vein is cannulated for blood sampling. A test semisolid suspension or solid composition (or standard solution for comparison purposes), e.g., a SOMATULINE/DECAPEPTYL mixture, is injected subcutaneously at a specific dosage, e.g., 1.0, 3.0, or 6.0 mg/kg of SOMATULINE. After administration of the composition or solution, heparinized blood samples are obtained through the cannula at set time intervals, and plasma is separated after centrifugation. The amount of carrier peptide and/or therapeutic agent(s) in the plasma samples is/are determined by, e.g., a standard radioimmunoassay (RIA) technique that allows a direct measurement of the carrier peptide and/or therapeutic agent(s) without extraction from the rat plasma. The resulting data are plotted (e.g., blood concentration (ng/ml) vs. time) to establish a blood level release profile.
0.15 ml of the foregoing semisolid mixture from Example 1 was loaded into a 0.3 ml insulin syringe and was injected into beagle dogs. Blood samples were collected and standard radioimmunoassay (RIA) analysis was performed thereon.

For CC(C)C[C@H](NC(=O)[C@@H](Cc1c[nH]c2ccccc12)NC(=O)[C@H](Cc1ccc(O)cc1)NC(=O)[C@H](CO)NC(=O)[C@H](Cc1c[nH]c2ccccc12)NC(=O)[C@H](Cc1c[nH]cn1)NC(=O)[C@@H]1CCC(=O)N1)C(=O)N[C@@H](CCCNC(=N)N)C(=O)N1CCC[C@H]1C(=O)NCC(N)=O [DECAPEPTYL], which level at 0.24 h (beagle, dog, in vivo, 0.15 ml) is on record?
The level at 0.24 h was 2.66 ng/mL.

What about the level at 0.48 h (beagle, dog, in vivo, 0.15 ml) of the same molecule?
The level at 0.48 h was 6.04 ng/mL.

What about the level at 0.96 h (beagle, dog, in vivo, 0.15 ml) of the same molecule?
Its level at 0.96 h is 9.97 ng/mL.

And the level at 1.92 h (beagle, dog, in vivo, 0.15 ml)?
Its level at 1.92 h is 16.4 ng/mL.

What about the level at 4.08 h (beagle, dog, in vivo, 0.15 ml) of the same molecule?
The level at 4.08 h was 17.3 ng/mL.

And the level at 6 h (beagle, dog, in vivo, 0.15 ml)?
Its level at 6 h is 21.2 ng/mL.

What about the level at 9.12 h (beagle, dog, in vivo, 0.15 ml) of the same molecule?
The level at 9.12 h was 23.1 ng/mL.

And the level at 24 h (beagle, dog, in vivo, 0.15 ml)?
Its level at 24 h is 8.11 ng/mL.

And the level at 47.76 h (beagle, dog, in vivo, 0.15 ml)?
The level at 47.76 h was 3.97 ng/mL.

And the level at 72.48 h (beagle, dog, in vivo, 0.15 ml)?
The level at 72.48 h was 3.16 ng/mL.

What about the level at 144.96 h (beagle, dog, in vivo, 0.15 ml) of the same molecule?
The level at 144.96 h was 1.35 ng/mL.

What about the level at 192.96 h (beagle, dog, in vivo, 0.15 ml) of the same molecule?
Its level at 192.96 h is 0.94 ng/mL.

And the level at 241.44 h (beagle, dog, in vivo, 0.15 ml)?
Its level at 241.44 h is 0.5 ng/mL.

What about the level at 312.96 h (beagle, dog, in vivo, 0.15 ml) of the same molecule?
The level at 312.96 h was 0.42 ng/mL.

What about the level at 361.2 h (beagle, dog, in vivo, 0.15 ml) of the same molecule?
Its level at 361.2 h is 0.32 ng/mL.

And the level at 408.48 h (beagle, dog, in vivo, 0.15 ml)?
The level at 408.48 h was 0.24 ng/mL.

What about the level at 483.36 h (beagle, dog, in vivo, 0.15 ml) of the same molecule?
Its level at 483.36 h is 0.19 ng/mL.

And the level at 528.96 h (beagle, dog, in vivo, 0.15 ml)?
Its level at 528.96 h is 0.13 ng/mL.

And the level at 577.44 h (beagle, dog, in vivo, 0.15 ml)?
The level at 577.44 h was 0.11 ng/mL.

What about the level at 650.88 h (beagle, dog, in vivo, 0.15 ml) of the same molecule?
The level at 650.88 h was 0.07 ng/mL.

And the “duration of sustained release of therapeutic levels in the blood” value (dog, in vivo)?
Its value is “one month or longer”.

Which results are given for CC(C)[C@@H]1NC(=O)[C@H](CCCCN)NC(=O)[C@@H](Cc2c[nH]c3ccccc23)NC(=O)[C@H](Cc2ccc(O)cc2)NC(=O)[C@@H](NC(=O)[C@H](N)Cc2ccc3ccccc3c2)CSSC[C@@H](C(=O)N[C@H](C(N)=O)[C@@H](C)O)NC1=O [SOMATULINE, lanreotide]?
level at 0 h (dog, in vivo, TIME 0.00 days, beagle dogs, 0.15 ml Example 1 semisolid mixture injected, read-out: concentration in blood samples (RIA)): 0.02 ng/mL; level at 0.24 h (dog, in vivo, TIME 0.01 days, beagle dogs, 0.15 ml Example 1 semisolid mixture injected, read-out: concentration in blood samples (RIA)): 3.91 ng/mL; level at 0.48 h (dog, in vivo, TIME 0.02 days, beagle dogs, 0.15 ml Example 1 semisolid mixture injected, read-out: concentration in blood samples (RIA)): 7.29 ng/mL; level at 0.96 h (dog, in vivo, TIME 0.04 days, beagle dogs, 0.15 ml Example 1 semisolid mixture injected, read-out: concentration in blood samples (RIA)): 9.34 ng/mL; level at 1.92 h (dog, in vivo, TIME 0.08 days, beagle dogs, 0.15 ml Example 1 semisolid mixture injected, read-out: concentration in blood samples (RIA)): 12.6 ng/mL; level at 4.08 h (dog, in vivo, TIME 0.17 days, beagle dogs, 0.15 ml Example 1 semisolid mixture injected, read-out: concentration in blood samples (RIA)): 17.3 ng/mL; level at 6 h (dog, in vivo, TIME 0.25 days, beagle dogs, 0.15 ml Example 1 semisolid mixture injected, read-out: concentration in blood samples (RIA)): 19.5 ng/mL; level at 9.12 h (dog, in vivo, TIME 0.38 days, beagle dogs, 0.15 ml Example 1 semisolid mixture injected, read-out: concentration in blood samples (RIA)): 17.8 ng/mL; level at 24 h (dog, in vivo, TIME 1.00 days, beagle dogs, 0.15 ml Example 1 semisolid mixture injected, read-out: concentration in blood samples (RIA)): 11.4 ng/mL; level at 47.76 h (dog, in vivo, TIME 1.99 days, beagle dogs, 0.15 ml Example 1 semisolid mixture injected, read-out: concentration in blood samples (RIA)): 9.51 ng/mL; level at 72.48 h (dog, in vivo, TIME 3.02 days, beagle dogs, 0.15 ml Example 1 semisolid mixture injected, read-out: concentration in blood samples (RIA)): 7.77 ng/mL; level at 144.96 h (dog, in vivo, TIME 6.04 days, beagle dogs, 0.15 ml Example 1 semisolid mixture injected, read-out: concentration in blood samples (RIA)): 6.63 ng/mL; level at 192.96 h (dog, in vivo, TIME 8.04 days, beagle dogs, 0.15 ml Example 1 semisolid mixture injected, read-out: concentration in blood samples (RIA)): 5.99 ng/mL; level at 241.44 h (dog, in vivo, TIME 10.06 days, beagle dogs, 0.15 ml Example 1 semisolid mixture injected, read-out: concentration in blood samples (RIA)): 4.88 ng/mL; level at 312.96 h (dog, in vivo, TIME 13.04 days, beagle dogs, 0.15 ml Example 1 semisolid mixture injected, read-out: concentration in blood samples (RIA)): 3.14 ng/mL; level at 361.2 h (dog, in vivo, TIME 15.05 days, beagle dogs, 0.15 ml Example 1 semisolid mixture injected, read-out: concentration in blood samples (RIA)): 2.54 ng/mL; level at 408.48 h (dog, in vivo, TIME 17.02 days, beagle dogs, 0.15 ml Example 1 semisolid mixture injected, read-out: concentration in blood samples (RIA)): 1.85 ng/mL; level at 483.36 h (dog, in vivo, TIME 20.14 days, beagle dogs, 0.15 ml Example 1 semisolid mixture injected, read-out: concentration in blood samples (RIA)): 1.46 ng/mL; level at 528.96 h (dog, in vivo, TIME 22.04 days, beagle dogs, 0.15 ml Example 1 semisolid mixture injected, read-out: concentration in blood samples (RIA)): 1.3 ng/mL; level at 577.44 h (dog, in vivo, TIME 24.06 days, beagle dogs, 0.15 ml Example 1 semisolid mixture injected, read-out: concentration in blood samples (RIA)): 1.11 ng/mL; level at 650.88 h (dog, in vivo, TIME 27.12 days, beagle dogs, 0.15 ml Example 1 semisolid mixture injected, read-out: concentration in blood samples (RIA)): 0.65 ng/mL; level at 698.64 h (dog, in vivo, TIME 29.11 days, beagle dogs, 0.15 ml Example 1 semisolid mixture injected, read-out: concentration in blood samples (RIA)): 0.52 ng/mL; level at 745.2 h (dog, in vivo, TIME 31.05 days, beagle dogs, 0.15 ml Example 1 semisolid mixture injected, read-out: concentration in blood samples (RIA)): 0.52 ng/mL; level at 818.64 h (dog, in vivo, TIME 34.11 days, beagle dogs, 0.15 ml Example 1 semisolid mixture injected, read-out: concentration in blood samples (RIA)): 0.5 ng/mL; level at 866.88 h (dog, in vivo, TIME 36.12 days, beagle dogs, 0.15 ml Example 1 semisolid mixture injected, read-out: concentration in blood samples (RIA)): 0.45 ng/mL; level at 912.72 h (dog, in vivo, TIME 38.03 days, beagle dogs, 0.15 ml Example 1 semisolid mixture injected, read-out: concentration in blood samples (RIA)): 0.34 ng/mL; level at 984.72 h (dog, in vivo, TIME 41.03 days, beagle dogs, 0.15 ml Example 1 semisolid mixture injected, read-out: concentration in blood samples (RIA)): 0.27 ng/mL; level at 1082.4 h (dog, in vivo, TIME 45.10 days, beagle dogs, 0.15 ml Example 1 semisolid mixture injected, read-out: concentration in blood samples (RIA)): 0.17 ng/mL; level at 1160.64 h (dog, in vivo, TIME 48.36 days, beagle dogs, 0.15 ml Example 1 semisolid mixture injected, read-out: concentration in blood samples (RIA)): 0.14 ng/mL; level at 1199.76 h (dog, in vivo, TIME 49.99 days, beagle dogs, 0.15 ml Example 1 semisolid mixture injected, read-out: concentration in blood samples (RIA)): 0.15 ng/mL; level at 1248.24 h (dog, in vivo, TIME 52.01 days, beagle dogs, 0.15 ml Example 1 semisolid mixture injected, read-out: concentration in blood samples (RIA)): 0.21 ng/mL; level at 1368.96 h (dog, in vivo, TIME 57.04 days, beagle dogs, 0.15 ml Example 1 semisolid mixture injected, read-out: concentration in blood samples (RIA)): 0.14 ng/mL; level at 1417.92 h (dog, in vivo, TIME 59.08 days, beagle dogs, 0.15 ml Example 1 semisolid mixture injected, read-out: concentration in blood samples (RIA)): 0.27 ng/mL; level at 1536.48 h (dog, in vivo, TIME 64.02 days, beagle dogs, 0.15 ml Example 1 semisolid mixture injected, read-out: concentration in blood samples (RIA)): 0.21 ng/mL; level at 1584.48 h (dog, in vivo, TIME 66.02 days, beagle dogs, 0.15 ml Example 1 semisolid mixture injected, read-out: concentration in blood samples (RIA)): 0.2 ng/mL; level at 1656.24 h (dog, in vivo, TIME 69.01 days, beagle dogs, 0.15 ml Example 1 semisolid mixture injected, read-out: concentration in blood samples (RIA)): 0.16 ng/mL; level at 1707.6 h (dog, in vivo, TIME 71.15 days, beagle dogs, 0.15 ml Example 1 semisolid mixture injected, read-out: concentration in blood samples (RIA)): 0.15 ng/mL; duration of sustained release of therapeutic levels in the blood (gel with SOMATULINE as carrier peptide and DECAPEPTYL as therapeutic agent, see Example 1): one month or longer
